Reference: patent publication EP0341019A2, “Polyether antibiotic” (priority 1988, dated 1989)
Several values for one entry are separate records, joined by “and”; a condition that tells them apart may be missing. Equal values may be shown once. Positions of bridges follow the written chain, without caps; N, C: chain ends. Non-standard residues stand in square brackets, D forms with d. Residues, ends and D or L forms follow the SMILES beside them. *: point of attachment. Ileψ(thiazoline)Cys = CC[C@H](C)[C@H](N)C1=N[C@H](C(=O)*)CS1; dOrn = NCCC[C@@H](N)C(=O)O

How the values were obtained:
[1] = system: Eimeria acervulina Strain 59 And E. tenella Strain 155; experiment: anticoccidial feed test in infected chickens, ionophore-sensitive strains; format: in vivo; conditions: A82810 0 ppm
[2] = system: Eimeria maxima Strain FS-177; experiment: anticoccidial feed test in infected chickens, ionophore-sensitive strain; format: in vivo; conditions: A82810 0 ppm
[3] = system: Eimeria acervulina Strain FS-316 And E. tenella Strain FS-456; experiment: anticoccidial feed test in infected chickens, ionophore-resistant strains; format: in vivo; conditions: A82810 0 ppm
[4] = system: E. acervulina Strain FS-316; experiment: anticoccidial feed test in infected chickens, ionophore-resistant strain; format: in vivo; conditions: Table X, A82810 0 ppm
E. maxima Strain LIT-626 = experiment: as above; format: in vivo; conditions: Table XIII; A82810 0 ppm; Benzeneamine ppm r4-r7: 8,10,12,14
[5] = system: Eimeria maxima Strain FS-410; experiment: as above; format: in vivo; conditions: A82810 0 ppm
[6] = system: Eimeria acervulina H & C and Eimeria tenella Wis; experiment: anticoccidial feed test in infected chickens, ionophore-sensitive strains; format: in vivo; conditions: Table XIX, A82810 0 ppm
[7] = system: Eimeria acervulina Strain FS-273 and E. tenella Strain FS-456; experiment: anticoccidial feed test in infected chickens, ionophore-resistant strains; format: in vivo; conditions: Table XX, A82810 0 ppm
[8] = system: culture A82810.1 (Actinomadura fibrosa sp. nov. NRRL 18348); experiment: antibiotic sensitivity disc test on seeded ISP No. 2 agar; format: cell-based; parameters: key to Resistance to: (A82810.1): Resistance was scored as (+) when no zone of inhibition was observed; (-) when a zone of inhibition was observed; conditions: for resistance / sensitivity of culture A82810.1 to the antibiotic: cephalothin 30 µg, lincomycin 2 µg, penicillin G 10 units, rifampin 5 µg, lysozyme 50 µg/mL, bacitracin 10 units, gentamicin 10 µg, neomycin 30 µg, oleandomycin 15 µg, streptomycin 10 µg, tetracycline 30 µg, tobramycin 10 µg, vancomycin 30 µg; for Resistance to: (A82810.1): Oleandomycin 16 µg, Penicillin G 10 units
Procedure: (§1) Resistance to antibiotics was measured by padding antibiotic sensitivity discs onto the surface of seeded ISP No. 2 agar plates. Resistance was scored as (+) when no zone of inhibition was observed and as (-) when a zone of inhibition was observed.

A. verrucosospora = experiment: antibiotic sensitivity disc test (species comparison); format: cell-based; parameters: key: Resistance was scored as (+) when no zone of inhibition was observed; (-) when a zone of inhibition was observed; conditions: Oleandomycin 16 µg; Penicillin G 10 units
Procedure: as §1

[9] = Benzeneamine ppm r4-r6: 8,12,16
[10] = Benzeneamine ppm r10-r12: 8,12,16

Compound: O=[N+]([O-])c1cc([N+](=O)[O-])c(Nc2ccc(Br)c3ccccc23)c(C(F)(F)F)c1 [4-Bromo-N-[2,4-dinitro-6-trifluoromethyl)phenyl]-1-naphthaleneamine]
- WEIGHT GAIN, PERCENT OF CONTROL ([1]; Table XXIV, 4-Bromo naphthaleneamine ppm r4-r7: 4,8,12,16): 73% OF CONTROL and 66% OF CONTROL and 72% OF CONTROL and 67% OF CONTROL
- AVERAGE INTESTINAL LESION SCORES ([1]; Table XXIV, 4-Bromo naphthaleneamine ppm r11-r14: 4,8,12,16): 6.2 and 6.9 and 6.6 and 3.8
- AVERAGE CECAL LESION SCORES ([1]; Table XXIV, 4-Bromo naphthaleneamine ppm r18-r21: 4,8,12,16): 2.9 and 3.5 and 3.0

Compound: O=[N+]([O-])c1cc([N+](=O)[O-])c(Nc2ccc(Cl)c3ccccc23)c(C(F)(F)F)c1 [4-chloro-N-[2,4-dinitro-6-(trifluoromethyl)phenyl]-1-naphthaleneamine]
- WEIGHT GAIN, PERCENT OF CONTROL ([1]; Table XXII, 4-chloro naphthaleneamine ppm r11-r14: 4,8,12,16): 80% OF CONTROL and 78% OF CONTROL and 92% OF CONTROL
- WEIGHT GAIN, PERCENT OF CONTROL ([2]; Table XXIII, 4-chloro naphthaleneamine ppm r11-r14: 4,8,12,16): 87% OF CONTROL and 80% OF CONTROL and 85% OF CONTROL and 84% OF CONTROL

Compound: O=[N+]([O-])c1cc([N+](=O)[O-])c(Nc2ccc(OC(F)(F)C(F)F)cc2)c(C(F)(F)F)c1 [Benzeneamine, 2,4-Dinitro-N-[4-(1,1,2,2-tetrafluoroethoxy)phenyl]-6-(trifluoromethyl)benzeneamine]
- TOTAL LESION SCORE ([1]; Table VI, Benzeneamine ppm r4-r7: 4,8,12,16): 12.4 and 10.9 and 10.4 and 10.8
- WEIGHT GAIN, PERCENT OF CONTROL ([1]; Table VI, Benzeneamine ppm r11-r14: 4,8,12,16): 75% OF CONTROL and 68% OF CONTROL and 73% OF CONTROL and 76% OF CONTROL
- WEIGHT GAIN, PERCENT OF CONTROL ([3]; Table IX, Benzeneamine ppm r4-r8: 16,18,20,22,24): 91% OF CONTROL and 84% OF CONTROL and 88% OF CONTROL and 85% OF CONTROL
- AVERAGE CECAL LESION SCORES ([3]; Table IX, Benzeneamine ppm r20-r24: 16,18,20,22,24): 2.9 and 3.0 and 2.6 and 1.6
- WEIGHT GAIN, PERCENT OF CONTROL ([3]; Table VII, Benzeneamine ppm r11-r14: 4,8,12,16): 90% OF CONTROL and 94% OF CONTROL and 88% OF CONTROL and 87% OF CONTROL
- WEIGHT GAIN, PERCENT OF CONTROL ([3]; Table VIII, Benzeneamine ppm r4-r7: 8,10,12,14): 76% OF CONTROL and 77% OF CONTROL and 75% OF CONTROL and 70% OF CONTROL
- AVERAGE INTESTINAL LESION SCORES ([3]; Table VIII, Benzeneamine ppm r11-r14: 8,10,12,14): 5.9 and 4.8 and 4.5
- AVERAGE CECAL LESION SCORES ([3]; Table VIII, Benzeneamine ppm r18-r21: 8,10,12,14): 3.3 and 3.2 and 3.1 and 2.8
- WEIGHT GAIN, PERCENT OF CONTROL ([4]; Benzeneamine ppm r4-r7: 4,8,12,16): 74% OF CONTROL and 71% OF CONTROL and 82% OF CONTROL and 75% OF CONTROL
- AVERAGE INTESTINAL LESION SCORES ([4]; Benzeneamine ppm r11-r14: 4,8,12,16): 6.9 and 8.4 and 6.3 and 5.8
- INTESTINAL LESION SCORE ([2]; Table XI, Benzeneamine ppm r4-r6: 8,12,16): 3.6 and 3.9 and 3.3
- WEIGHT GAIN, PERCENT OF CONTROL ([2]; Table XI, Benzeneamine ppm r10-r12: 8,12,16): 77% OF CONTROL and 84% OF CONTROL and 87% OF CONTROL
- AVERAGE INTESTINAL LESION SCORES ([2]; Table XII, Benzeneamine ppm r4-r6: 8,12,16): 2.6 and 2.2 and 2.3
- WEIGHT GAIN, PERCENT OF CONTROL ([2]; Table XII, Benzeneamine ppm r10-r12: 8,12,16): 79% OF CONTROL and 88% OF CONTROL and 102% OF CONTROL
- WEIGHT GAIN, PERCENT OF CONTROL (E. maxima Strain LIT-626): 94% OF CONTROL and 99% OF CONTROL and 93% OF CONTROL and 98% OF CONTROL
- WEIGHT GAIN, PERCENT OF CONTROL ([5]; Table XIV, Benzeneamine ppm r4-r7: 8,10,12,14): 90% OF CONTROL and 88% OF CONTROL and 92% OF CONTROL
- AVERAGE INTESTINAL LESION SCORES ([5]; Table XIV, Benzeneamine ppm r11-r14: 8,10,12,14): 3.8 and 3.7 and 3.3
- WEIGHT GAIN, PERCENT OF CONTROL ([5]; Table XV, Benzeneamine ppm r4-r7: 9,10,11,12): 90% OF CONTROL and 94% OF CONTROL and 87% OF CONTROL and 84% OF CONTROL
- AVERAGE INTESTINAL LESION SCORES ([5]; Table XV, Benzeneamine ppm r11-r14: 9,10,11,12): 4.0 and 3.8 and 3.7
- WEIGHT GAIN, PERCENT OF CONTROL ([5]; Table XVI, Benzeneamine ppm r4-r8: 16,18,20,22,24): 71% OF CONTROL and 76% OF CONTROL and 81% OF CONTROL and 79% OF CONTROL and 83% OF CONTROL
- AVERAGE INTESTINAL LESION SCORES ([5]; Table XVI, Benzeneamine ppm r12-r16: 16,18,20,22,24): 4.0 and 3.1 and 3.4 and 3.7 and 2.6
- LESION SCORE ([5]; Table XVII, Benzeneamine ppm r4-r6: 8,12,16): 3.3 and 2.9 and 2.4
- WEIGHT GAIN, PERCENT OF CONTROL ([5]; Table XVII, Benzeneamine ppm r10-r12: 8,12,16): 68% OF CONTROL and 59% OF CONTROL and 74% OF CONTROL
- INTESTINAL LESION SCORE ([5]; Table XVIII, Benzeneamine ppm r4-r6: 8,12,16): 4.0 and 3.9 and 3.3
- WEIGHT GAIN, PERCENT OF CONTROL ([5]; Table XVIII, Benzeneamine ppm r10-r12: 8,12,16): 91% OF CONTROL and 95% OF CONTROL and 93% OF CONTROL
- AVERAGE INTESTINAL LESION SCORES [6, 9]: 6.0 and 5.1 and 4.7
- WEIGHT GAIN, PERCENT OF CONTROL [6, 10]: 62% OF CONTROL and 64% OF CONTROL and 69% OF CONTROL
- LESION SCORE [7, 9]: 9.4 and 8.4 and 8.0
- WEIGHT GAIN, PERCENT OF CONTROL [7, 10]: 70% OF CONTROL and 72% OF CONTROL and 74% OF CONTROL
- PERCENT REDUCTION IN OOCYST PRODUCTION ([7]; Benzeneamine ppm r16-r18: 8,12,16): 17% and 18% and 20%

Compound: CC[C@H](C)[C@H](N)C1=N[C@H](C(=O)N[C@@H](CC(C)C)C(=O)N[C@H](CCC(=O)O)C(=O)N[C@H](C(=O)N[C@H]2CCCCNC(=O)[C@H](CC(N)=O)NC(=O)[C@@H](CC(=O)O)NC(=O)[C@H](Cc3cnc[nH]3)NC(=O)[C@@H](Cc3ccccc3)NC(=O)[C@H]([C@@H](C)CC)NC(=O)[C@@H](CCCN)NC2=O)[C@@H](C)CC)CS1 [bacitracin] ({Ileψ(thiazoline)Cys}-L[dE]IK[dOrn]I[dF]H[dD]N; lactam 4-C)
- resistance / sensitivity of culture A82810.1 to the antibiotic [8]: sensitive

Compound: CC(=O)OCC1=C(C(=O)O)N2C(=O)[C@@H](NC(=O)Cc3cccs3)[C@H]2SC1 [cephalothin]
- resistance / sensitivity of culture A82810.1 to the antibiotic [8]: resistant

Compound: CCC[C@@H]1C[C@@H](C(=O)N[C@@H]([C@H]2O[C@H](SC)[C@H](O)[C@@H](O)[C@H]2O)[C@@H](C)O)N(C)C1 [lincomycin]
- resistance / sensitivity of culture A82810.1 to the antibiotic [8]: resistant

Compound: CO[C@H]1C[C@H](O[C@H]2[C@H](C)[C@@H](O[C@@H]3O[C@H](C)C[C@H](N(C)C)[C@H]3O)[C@@H](C)C[C@@]3(CO3)C(=O)[C@H](C)[C@@H](O)[C@@H](C)[C@@H](C)OC(=O)[C@@H]2C)O[C@@H](C)[C@@H]1O [oleandomycin]
- Resistance to: (A82810.1) [8]: -
- resistance / sensitivity of culture A82810.1 to the antibiotic [8]: sensitive
- Resistance to: (A. verrucosospora) (A. verrucosospora): +

Compound: CC1(C)S[C@@H]2[C@H](NC(=O)Cc3ccccc3)C(=O)N2[C@H]1C(=O)O [penicillin G]
- Resistance to: (A82810.1) [8]: +
- resistance / sensitivity of culture A82810.1 to the antibiotic [8]: resistant
- Resistance to: (A. verrucosospora) (A. verrucosospora): -

Compound: CO[C@H]1/C=C/O[C@@]2(C)Oc3c(C)c(O)c4c(O)c(c(/C=N/N5CCN(C)CC5)c(O)c4c3C2=O)NC(=O)/C(C)=C\C=C\[C@H](C)[C@H](O)[C@@H](C)[C@@H](O)[C@@H](C)[C@H](OC(C)=O)[C@@H]1C [rifampin]
- resistance / sensitivity of culture A82810.1 to the antibiotic [8]: resistant

Compound: [H]/N=C(/N)N[C@H]1[C@H](O)[C@@H](O)[C@H](O[C@@H]2O[C@@H](C)[C@](O)(C=O)[C@H]2O[C@@H]2O[C@@H](CO)[C@H](O)[C@@H](O)[C@@H]2NC)[C@@H](N/C(N)=N\[H])[C@@H]1O [streptomycin]
- resistance / sensitivity of culture A82810.1 to the antibiotic [8]: sensitive

Compound: NC[C@H]1O[C@H](O[C@H]2[C@H](O)[C@@H](O[C@H]3O[C@H](CO)[C@@H](O)[C@H](N)[C@H]3O)[C@H](N)C[C@@H]2N)[C@H](N)C[C@@H]1O [tobramycin]
- resistance / sensitivity of culture A82810.1 to the antibiotic [8]: sensitive

Compound: CN[C@H](CC(C)C)C(=O)N[C@H]1C(=O)N[C@@H](CC(N)=O)C(=O)N[C@H]2C(=O)N[C@H]3C(=O)N[C@H](C(=O)N[C@H](C(=O)O)c4cc(O)cc(O)c4-c4cc3ccc4O)[C@H](O)c3ccc(c(Cl)c3)Oc3cc2cc(c3O[C@@H]2O[C@H](CO)[C@@H](O)[C@H](O)[C@H]2O[C@H]2C[C@](C)(N)[C@H](O)[C@H](C)O2)Oc2ccc(cc2Cl)[C@H]1O [vancomycin]
- resistance / sensitivity of culture A82810.1 to the antibiotic [8]: sensitive

Compound: gentamicin
- resistance / sensitivity of culture A82810.1 to the antibiotic [8]: sensitive

Compound: neomycin
- resistance / sensitivity of culture A82810.1 to the antibiotic [8]: sensitive
